In PubChem BioAssay (NCI):
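Here, GI50 denotes the concentration required for 50% inhibition of growth. TGI: total growth inhibition.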

How the values were obtained:
Experiment in all cases: growth of human tumour cells (NCI), 384-well format
[1] = test system: MDA-MB-468 breast
[2] = test system: SW-620 colon
[3] = test system: SN12C renal
[4] = test system: HL-60(TB) leukemia
[5] = test system: T-47D breast
[6] = test system: OVCAR-5 ovarian
[7] = test system: HOP-92 NSCLC
[8] = test system: HCT-116 colon
[9] = test system: BT-549 breast
[10] = test system: HS 578T breast
[11] = test system: MDA-MB-231 breast
[12] = test system: 786-0 renal
[13] = test system: HT29 colon
[14] = test system: M14 melanoma
[15] = test system: NCI/ADR-RES ovarian
[16] = test system: IGROV1 ovarian
[17] = test system: UACC-62 melanoma
[18] = test system: A549 NSCLC
[19] = test system: ACHN renal
[20] = test system: SK-MEL-2 melanoma
[21] = test system: OVCAR-4 ovarian
[22] = test system: KM12 colon
[23] = test system: K-562 leukemia
[24] = test system: RPMI-8226 leukemia
[25] = test system: LOX IMVI melanoma
[26] = test system: SK-OV-3 ovarian
[27] = test system: MALME-3M melanoma
[28] = test system: UACC-257 melanoma
[29] = test system: TK-10 renal
[30] = test system: A498 renal
[31] = test system: CAKI-1 renal
[32] = test system: DU-145 prostate
[33] = test system: RXF 393 renal
[34] = test system: PC-3 prostate
[35] = test system: NCI-H522 lung
[36] = test system: NCI-H226 lung
[37] = test system: UO-31 renal
[38] = test system: MCF7 breast
[39] = test system: HCT-15 colon
[40] = test system: EKVX NSCLC
[41] = test system: NCI-H322M lung
[42] = test system: SK-MEL-28 melanoma
[43] = test system: U251 glioblastoma
[44] = test system: MDA-MB-435 melanoma
[45] = test system: NCI-H23 lung
[46] = test system: OVCAR-3 ovarian
[47] = test system: MOLT-4 leukemia
[48] = test system: OVCAR-8 ovarian
[49] = test system: HOP-62 NSCLC

`CC/C(=C(\c1ccccc1)c1ccc(OCCN(C)C)cc1)c1ccccc1` showed a GI50 [1] of 4.92 µM, a TGI [1] of 16 µM and a GI50 [2] of 9.21 µM. It also gave a TGI [2] of 21.6 µM, a GI50 [3] of 13.6 µM and a TGI [3] of 26.7 µM. The GI50 [4] was 1.93 µM, the TGI [4] was 3.39 µM and the GI50 [5] was 5.64 µM. The TGI [5] was 19.7 µM, the GI50 [6] was 8.67 µM and the TGI [6] was 21 µM. For the same compound, the GI50 [7] was 14.7 µM, the TGI [7] was 28.1 µM and the GI50 [8] was 5.26 µM. The TGI [8] was 17.5 µM, the GI50 [9] was 10.7 µM and the TGI [9] was 22.8 µM. The GI50 [10] was 14 µM, the TGI [10] was 27.2 µM and the GI50 [11] was 11.5 µM. The TGI [11] was 24 µM, the GI50 [12] was 4.92 µM and the TGI [12] was 15.7 µM. For the same compound, the GI50 [13] was 2.2 µM, the TGI [13] was 4.16 µM and the GI50 [14] was 1.89 µM. It also gave a TGI [14] of 3.51 µM, a GI50 [15] of 12 µM and a TGI [15] of 24.6 µM. It also gave a GI50 [16] of 14.2 µM, a TGI [16] of 27.4 µM and a GI50 [17] of 2.77 µM. For the same compound, the TGI [17] was 7.86 µM, the GI50 [18] was 10.9 µM and the TGI [18] was 23.7 µM. For the same compound, the GI50 [19] was 16.4 µM, the TGI [19] was 30.3 µM and the GI50 [20] was 4.1 µM. The TGI [20] was 15.8 µM, the GI50 [21] was 12.9 µM and the TGI [21] was 25.7 µM. It also gave a GI50 [22] of 3.27 µM, a TGI [22] of 10.7 µM and a GI50 [23] of 2.51 µM. It also gave a TGI [23] of 5.33 µM, a GI50 [24] of 1.94 µM and a TGI [24] of 3.66 µM. The GI50 [25] was 4.94 µM, the TGI [25] was 17 µM and the GI50 [26] was 10.6 µM. The TGI [26] was 22.8 µM, the GI50 [27] was 1.99 µM and the TGI [27] was 3.66 µM. The GI50 [28] was 1.97 µM, the TGI [28] was 3.56 µM and the GI50 [29] was 12.7 µM. For the same compound, the TGI [29] was 25.5 µM, the GI50 [30] was 4.05 µM and the TGI [30] was 15 µM. It also gave a GI50 [31] of 8.23 µM, a TGI [31] of 20.8 µM and a GI50 [32] of 12.8 µM. The TGI [32] was 25.9 µM, the GI50 [33] was 3.43 µM and the TGI [33] was 8.75 µM. The GI50 [34] was 4.18 µM, the TGI [34] was 13.7 µM and the GI50 [35] was 11.4 µM. For the same compound, the TGI [35] was 23.7 µM, the GI50 [36] was 7.96 µM and the TGI [36] was 20.2 µM. The GI50 [37] was 14.9 µM, the TGI [37] was 28.4 µM and the GI50 [38] was 1.65 µM. For the same compound, the TGI [38] was 7.98 µM, the GI50 [39] was 2.05 µM and the TGI [39] was 3.96 µM. The GI50 [40] was 14.7 µM, the TGI [40] was 28.1 µM and the GI50 [41] was 6.11 µM. It also gave a TGI [41] of 18.4 µM, a GI50 [42] of 5.35 µM and a TGI [42] of 16.8 µM. The GI50 [43] was 5.21 µM, the TGI [43] was 16.2 µM and the GI50 [44] was 7.19 µM. For the same compound, the TGI [44] was 19.5 µM, the GI50 [45] was 10.6 µM and the TGI [45] was 22.6 µM. For the same compound, the GI50 [46] was 9.12 µM, the TGI [46] was 21.3 µM and the GI50 [47] was 2.56 µM. It also gave a TGI [47] of 6 µM, a GI50 [48] of 11.5 µM and a TGI [48] of 24 µM. For the same compound, the GI50 [49] was 12.9 µM and the TGI [49] was 25.7 µM.
